The structures appear in SMILES notation.

The assay has as its target T1, CCK-B receptor (Mus musculus, UniProt P56481).
T1 construct: from tissue; host or cells: cerebral cortex membranes of male CFLP mice
T1 sequence (P56481 1-453): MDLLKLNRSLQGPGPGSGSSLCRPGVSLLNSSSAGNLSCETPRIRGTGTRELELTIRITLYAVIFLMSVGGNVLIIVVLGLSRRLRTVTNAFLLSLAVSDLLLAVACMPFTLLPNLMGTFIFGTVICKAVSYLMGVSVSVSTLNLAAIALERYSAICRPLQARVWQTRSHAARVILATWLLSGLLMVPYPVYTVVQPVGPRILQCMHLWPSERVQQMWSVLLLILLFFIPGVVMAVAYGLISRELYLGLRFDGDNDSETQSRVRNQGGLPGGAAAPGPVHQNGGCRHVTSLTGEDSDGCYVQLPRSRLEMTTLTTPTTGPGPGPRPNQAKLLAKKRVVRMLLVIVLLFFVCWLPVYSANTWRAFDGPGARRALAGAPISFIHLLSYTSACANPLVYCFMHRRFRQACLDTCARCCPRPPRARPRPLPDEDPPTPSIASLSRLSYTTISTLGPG
Nature of the assay: Displacement of tritiated-pentagastrin binding to mouse cerebral cortical membranes (CCK receptor binding). Also noted: species or system male CFLP mice. The conditions noted are these: displacement of 2 nM tritiated-pentagastrin, Ki by Cheng-Prusoff equation, read-out: Ki, Binding Affinity CCK-B. How it is done: The biological activity of compounds of the present invention was evaluated employing an initial screening test which rapidly and accurately measured the binding of the tested compound to known CCK receptor sites. […] (See Hays, et al., Neuropeptides 1980;1:53-62; and Satuer, et al., Science 1980;208:1155-6.)
In this screening test, the cerebral cortices taken from male CFLP mice weighing between 30-40 g were dissected on ice, weighed, and homogenized in 10 volumes of 50 mM Tris-HCl buffer (pH 7.4 at 0-4° C.). The resulting suspension was centrifuged, the supernate was discarded, and the pellet was washed by resuspension in Tris-HCl buffer followed by recentrifugation. The final pellet was resuspended in 20 volumes of […] buffer (pH 7.2 at 23° C.) containing 130 mM NaCl, […], […], […], 5 mg/mL bovine albumin, and bacitracin (0.25 mg/mL).
In saturation studies, cerebral cortical membranes were incubated at 23° C. for 120 minutes in a final volume of 500 μL of Hepes incubation buffer (pH 7.2) together with 0.2-20 nM tritiated-pentagastrin (Amersham International, England).
In the displacement experiments, membranes were incubated with a single concentration (2 nM) of ligand, together with increasing concentrations ([…]) of competitive test compound. In each case, the nonspecific binding was defined as that persisting in the presence of the unlabeled octapeptide CCK26-33 (10^-6 M).
Following incubation, radioactivity bound to membranes was separated from that free in solution by rapid filtration through Whatman GF/B filters and washed three times with 4 mL of ice cold Tris-HCl buffer. Filters from samples incubated with tritiated-pentagastrin were placed in polyethylene vials with 4 mL of scintillation cocktail, and the radioactivity was estimated by liquid scintillation spectrometry (efficiency 47%-52%).
The specific binding to CCK receptor sites was defined as the total bound tritiated-pentagastrin minus the amount of tritiated-pentagastrin bound in the presence of 10^-6 octapeptide, CCK26-33.
Saturation curves for specific tritiated-pentagastrin binding to mouse cortical membranes were analyzed by the methods of Scatchard (Ann New York Acad Sci 1949;51:660-72, and Hill, J Physiol 1910;40:IV-VIII), to provide estimates for the maximum number of binding sites (Bmax) and the equilibrium dissociation constant ([…]).
In displacement experiments, inhibition curves were analyzed by either logit-log plots or the iterative curve fitting computer program ALLFIT (DeLean, Munson, Redbard, 1978) to provide estimates of the IC50 and nH (apparent Hill coefficient) values). (IC50 values were defined as the concentration of test compound required to produce 50% inhibition of specific binding.)
The inhibition constant (Ki) of the test compound was then calculated according to the Cheng-Prusoff equation: [formula] where [L] is the concentration of radiolabel and Ka is the equilibrium dissociation constant.

On to `Cc1ccc(S(=O)(=O)NC(=O)N[C@H](c2ccccc2)[C@H](NC(=O)Nc2ccc(Cl)cc2)c2ccccc2)cc1` (relative stereo) [Example 46, [R-(R*,R*)] and [S-(R*,R*)]-N-[[[2-[[[(4-chlorophenyl)-amino]carbonyl]amino]-1,2-diphenylethyl]amino]-carbonyl]-4-methyl-benzenesulfonamide], for which the inhibitory constant (Ki) amounted to 188 nM.
Turning to `Cc1ccc(NC(=O)N[C@H](c2ccccc2)[C@H](NC(=O)NS(=O)(=O)c2ccc(C)cc2)c2ccccc2)cc1` (relative stereo) [Example 54, [R-(R*,R*)] and [S-(R*,R*)]-4-methyl-N-[[[2-[[[(4-methylphenyl)amino]carbonyl]amino]-1,2-diphenylethyl]amino]carbonyl]benzenesulfonamide], the Ki worked out at 178 nM.
With `Cc1ccc(S(=O)(=O)NC(=O)N[C@H](c2ccccc2)[C@H](NC(=O)Nc2ccc(C(F)(F)F)cc2)c2ccccc2)cc1` (relative stereo) [Example 14, [S-(R*,R*)] and [R-(R*,R*)]-N-[[[1,2-diphenyl-2-[[[[4-(trifluoromethyl)phenyl]amino]carbonyl]amino]-ethyl]amino]carbonyl]-4-methyl-benzenesulfonamide] the figure was 188 nM.
Turning to `O=C(Nc1ccc([N+](=O)[O-])cc1)N[C@H](c1ccccc1)[C@H](NC(=O)Nc1ccc(C(F)(F)F)cc1)c1ccccc1` (relative stereo) [Example 15, [S-(R*,R*)] and [R-(R*,R*)]-N-[1,2-diphenyl-2-[[[[4-(trifluoromethyl)phenyl]amino]carbonyl]amino]-ethyl]-N'-(4-nitrophenyl)urea], the Ki turned out to be 309 nM.
For `O=C(Nc1ccc(Cl)cc1)N[C@H](c1ccccc1)[C@H](NC(=O)Nc1ccc(C(F)(F)F)cc1)c1ccccc1` (relative stereo) [Example 10, [R-(R*,R*)] and [S-(R*,R*)]-N-(4-chlorophenyl)-N'-[1,2-diphenyl-2-[[[[4-(trifluoromethyl)phenyl]amino]-carbonyl]amino]ethyl]-urea], the Ki worked out at 371 nM.
Next, `O=C(Nc1ccc(Cl)cc1)N[C@H](c1ccccc1)[C@H](NC(=O)NS(=O)(=O)c1ccccc1)c1ccccc1` (relative stereo) [Example 47, [R-(R*,R*)] and [S-(R*,R*)]-N-[[[2-[[[4-chlorophenyl)-amino]carbonyl]amino]-1,2-diphenylethyl]amino]-carbonyl]benzenesulfonamide]: 290 nM; `Cc1ccc(S(=O)(=O)NC(=O)N[C@@H](c2ccccc2)[C@@H](NC(=O)Nc2ccc(Cl)cc2)c2ccccc2)cc1` [Example 64, (+)-[S-(R*,R*)]-N-[[[2-[[[(4-chlorophenyl)amino]-carbonyl]amino]-1,2-diphenylethyl]amino]carbonyl]-4-methyl-urea]: 93 nM; `O=C(Nc1ccc(Cl)cc1)N[C@@H](c1ccccc1)[C@@H](NC(=O)Nc1ccc(C(F)(F)F)cc1)c1ccccc1` [Example 65, (+)-[S-(R*,R*)]-N-(4-chlorophenyl)-N'-[1,2-diphenyl]-2-[[[[4-(trifluoromethyl)phenyl]amino]carbonyl]amino]-ethyl]urea]: 293 nM.

The values above are taken from patent publication US6103761A, “Agents acting at cholecystokinin receptors” (Warner-Lambert Company, priority 1994, dated 2000).
